Results reported in patent US7928231B2, “Thienopyrazoles” (priority 2003, dated 2011).
Where a name gives a salt, the structure may show the parent alone. One block for each molecule: values may come before it.

What was measured:
ITK = target: T1, ITK (Homo sapiens, UniProt Q08881); test: FlashPlate ITK protocol for ITK inhibition determination (ITK autophosphorylation, [γ-33P]ATP); assay type: biochemical; details: MBP-tagged ITK, read-out: IC50 (enzyme inhibition)-
T1 construct: made in house
T1 sequence (Q08881 1-620): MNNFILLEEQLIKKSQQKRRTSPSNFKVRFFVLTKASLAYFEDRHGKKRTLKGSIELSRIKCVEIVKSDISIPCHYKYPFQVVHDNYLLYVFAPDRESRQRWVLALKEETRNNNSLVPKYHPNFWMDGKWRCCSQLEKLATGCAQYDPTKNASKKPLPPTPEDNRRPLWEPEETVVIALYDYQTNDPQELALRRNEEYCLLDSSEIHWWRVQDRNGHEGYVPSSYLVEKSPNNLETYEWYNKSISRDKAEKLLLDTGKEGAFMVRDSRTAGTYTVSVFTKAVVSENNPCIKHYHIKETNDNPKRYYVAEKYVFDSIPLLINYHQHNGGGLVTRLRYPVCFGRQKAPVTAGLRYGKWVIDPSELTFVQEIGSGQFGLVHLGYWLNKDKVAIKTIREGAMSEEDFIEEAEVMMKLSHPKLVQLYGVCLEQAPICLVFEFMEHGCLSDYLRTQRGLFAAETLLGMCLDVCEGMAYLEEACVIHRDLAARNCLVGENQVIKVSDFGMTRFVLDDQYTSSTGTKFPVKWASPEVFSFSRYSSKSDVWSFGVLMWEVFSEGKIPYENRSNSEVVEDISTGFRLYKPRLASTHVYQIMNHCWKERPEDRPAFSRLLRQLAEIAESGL
Protocol: ITK kinase is produced with an N-terminal Maltose Binding Protein tag (MW=˜114 kDa) using a Baculovirus expression system. The transfer of radioactive [γ-^33P] phosphate from [γ-^33P]ATP to ITK during the autophosphorylation of ITK is measured by scintillation counting. Streptavidin-coated FlashPlate Plus™ 384 well microplates (PerkinElmer Life Sciences) are designed for in-plate radiometric assays. The interior of each well is permanently coated with a thin layer of scintillant and a covalently bound layer of Streptavidin. ITK is incubated with [γ-^33P]ATP, biotinylated anti-MBP antibody (Cell Signaling Technology™) and test compounds in a 384-well Streptavidin-coated FlashPlate. The biotinylated anti-MBP binds tightly to the MBP-tagged ITK and cross-links it to Streptavidin on the plate surface. Unreacted ^33P-ATP is washed away and ^33P-phosphorylated ITK is measured when the [γ-^33P] incorporated into ITK stimulates the scintillant on the well to emit light. Radioactivity is assessed in a Packard
TopCount scintillation counter. Reagents are pipetted and dispensed using Beckman Biomek robotic equipment. Test compounds (2 μl per well) are pre-diluted from 1 mM 100% dimethyl sulfoxide solutions into water containing 30% dimethyl sulfoxide to produce dose response curves (10 point curves from (final) 30 μM to ˜1 nM); all tests are performed in duplicate. Background binding is assessed by substituting the enzyme inhibitor EDTA (25 mM final concentration) for test compound and maximal binding is assessed by inclusion of assay buffer instead of compound. Test compounds are added to the wells first (2 μl) followed by 10 μl enzyme solution in assay buffer. After 30 minutes pre-incubation, all other reagents are added in a 10 μl volume. The final reagent concentrations/well are as follows: 20 nM enzyme, 0.25 μCi [γ-^33P]ATP, assay buffer: 20 mM HEPES (pH 7.5), 0.15 M NaCl, 3 mM MgCl2, 3 mM MnCl2, 0.01% Triton X-100, 1 mM DTT, 5% glycerol and 0.01% γ-globulin. The plate is incubated at room temperature (RT) for 60 minutes for the kinase reaction. The reaction is stopped with 20 μl of 50 mM EDTA and the biotinylated anti-MBP is allowed to bind to the ITK and the Streptavidin for a further 60 minutes at RT. The unbound reagents are washed away with 2×100 μl phosphate-buffered saline (PBS). Radioactivity is measured for 45 sec/well.

[1] = test system: IL-4 production from anti-CD3-stimulated murine splenocytes; test: Anti-CD3 stimulated IL-4 assay from murine splenocytes; assay type: cell-based; details: Mus musculus, Splenocyte, 72 h; BALB/c splenocytes, anti-CD3 stimulation, 3 days, IL-4 ELISA; read-out: IC50 IL-4 release inhibition- assay
Protocol: Anti-CD3 stimulated IL-4 Assay from Murine Splenocytes.
The tyrosine kinase ITK is involved in intracellular signaling events induced by several lymphocyte surface receptors. Since ITK deficient mice show an impairment in IL-4 production from T cells, a cell based assay for IL-4 production is used to measure the cellular potency of the ITK inhibitors of the present invention. In this assay the level of IL-4 is measured from the media of anti-CD3-stimulated murine splenocytes, and the ability of compounds of the present invention to inhibit this response is determined.
Spleens from the mouse strain BALB/c are isolated and used to prepare a suspension of mixed splenocytes. The spleens are homogenized with cell strainer (Falcon Cat#352350 and 5 ml syringe) in RPMI media. The mixture is spun down, and the pellets are suspended in 3 ml of Red Blood Cell Lysing Buffer (Sigma Cat#7757) and left for 10 minutes at room temperature. Cells are spun down again, and resuspended in RPMI with 10% FBS and passed through cell strainer. Total cell numbers are determined with hemocytometer.
Splenocytes are adjusted to a cell density of 10 million per ml of RPMI medium supplemented with 10% Foetal Bovine Serum (FBS) and 100 uls of the suspension plated out per well of a 96 round bottom plate. 50 uls of RPMI medium containing 4× the final concentration of test compound is added per well. For IC50 determination the following concentrations of compound are used. The starting concentration is 10 uM and 7 series of 1:3 dilutions are followed, and each compound concentration is set up in triplicate wells. 50 ul of 4× concentration are added. Cell cultures are then stimulated by addition of 50 ul of a 4 ug/ml solution of anti-CD3 antibody, (BD Bioscience Cat #553166) made up in RPMI plus 10% FBS media, and incubated in a 37° C. CO2 incubator for 3 days. At the end of the 3 day incubation, culture medium is taken and 50 uls used to assay IL-4 production by ELISA (IL-4 ELISA kit from R&D Systems, city. Cat #M4000 kit) according to the standard conditions described by the manufacturer.
IL-4 levels are plotted as a function of compound concentration. The concentration of compound resulting in 50% inhibition of IL-4, termed IC50(IL-4), is determined from the resulting curve.
Assay Procedure • 1. Add 100 ul of 1×10E7/ml mouse splenocytes in RPMI plus 10% FBS media to 96 well round bottom plates. • 2. Add 50 ul of Itk compounds (4× final concentration) in RPMI plus 10% FBS media • 3. Add 50 ul of 4 ug/ml anti-CD3 antibody in RPMI plus 10% FBS media • 4. Incubate at 37 c CO2 incubator for 3 days • 5. Transfer 150 ul culture media into fresh plate • 6. 50 ul of the media is subject to Elisa analysis (R & D Cat #M4000 kit) FlashPlate ITK Protocol for ITK Inhibition Determination

Structure (SMILES): OC(c1ccc2cc(-c3n[nH]c4ccsc34)[nH]c2c1)(C1CC1)C1CC1
melting point: 110 to 112 °C

Structure (SMILES): OC1CCN(CCCOc2ccc3cc(-c4n[nH]c5cc(-c6ccccc6)sc45)[nH]c3c2)CC1
melting point: 239 to 242 °C

Structure (SMILES): c1ccc2[nH]c(-c3n[nH]c4ccsc34)nc2c1 [Example 1, 2-(1H-Thieno[3,2-c]pyrazol-3-yl)-1H-benzimidazole]
IC50 (ITK): 167 nM
IC50 [1]: 264 nM

Structure (SMILES): COc1ccc2nc(-c3n[nH]c4ccsc34)[nH]c2c1 [Example 2, 6-Methoxy-2-(1H-thieno[3,2-c]pyrazol-3-yl)-1H-benzoimidazole]
IC50 (ITK): 157 nM
IC50 [1]: 164 nM

Structure (SMILES): c1cc2[nH]nc(-c3cc4ccc(OCCCN5CCCCC5)cc4[nH]3)c2s1 [Example 7, 6-(3-Piperidin-1-yl-propoxy)-2-(1H-thieno[3,2-c]pyrazol-3-yl)-1H-indole]
IC50 (ITK): 1.89 nM
IC50 [1]: 163 nM

Structure (SMILES): CCN1CCN(CCCOc2ccc3cc(-c4n[nH]c5ccsc45)[nH]c3c2)CC1 [Example 10, 6-[3-(4-Ethyl-piperazin-1-yl)-propoxy]-2-(1H-thieno[3,2-c]pyrazol-3-yl)-1H-indole]
IC50 (ITK): 2.94 nM
IC50 [1]: 289 nM

Structure (SMILES): CCN(CC)CCCOc1ccc2cc(-c3n[nH]c4ccsc34)[nH]c2c1 [Example 12, Diethyl-{3-[2-(1H-thieno[3,2-c]pyrazol-3-yl)-1H-indol-6-yloxy]-propyl}-amine]
IC50 (ITK): 5.22 nM

Structure (SMILES): C=CCN(CC=C)CCCOc1ccc2cc(-c3n[nH]c4ccsc34)[nH]c2c1 [Example 13, Diallyl-{3-[2-(1H-thieno[3,2-c]pyrazol-3-yl)-1H-indol-6-yloxy]-propyl}-amine]
IC50 (ITK): 12.3 nM

Structure (SMILES): OC1CCN(CCCOc2ccc3cc(-c4n[nH]c5ccsc45)[nH]c3c2)C1 (stereo not drawn) [Example 14, 1-{3-[2-(1H-Thieno[3,2-c]pyrazol-3-yl)-1H-indol-6-yloxyl]-propyl}-pyrrolidin-3-ol]
IC50 (ITK): 15.1 nM

Structure (SMILES): OC1CCN(CCCOc2ccc3[nH]c(-c4n[nH]c5ccsc45)cc3c2)CC1 [Example 16, 1-{3-[2-(1H-Thieno[3,2-c]pyrazol-3-yl)-1H-indol-5-yloxy]-propyl}-piperidin-4-ol]
IC50 (ITK): 40.9 nM

Structure (SMILES): OC1CCN(CCCOc2ccc3[nH]c(-c4n[nH]c5ccsc45)cc3c2)C1 (stereo not drawn) [Example 19, 1-{3-[2-(1H-Thieno[3,2-c]pyrazol-3-yl)-1H-indol-5-yloxy]-propyl}-pyrrolidin-3-ol]
IC50 (ITK): 45.7 nM

Structure (SMILES): c1ccc2c(c1)sc1c(-c3nc4ccc(OCCCN5CCCCC5)cc4[nH]3)n[nH]c12 [Example 20, 3-(5-(3-Piperidin-1-yl-propoxy)-1H-Benzoimidazol-2-yl)-1H-benzo[4,5]thieno[3,2-c]pyrazole hydrochloride]
IC50 (ITK): 112 nM

Results, then the molecule that gave them:

melting point: 156 to 158 °C
Structure (SMILES): O=C(c1cc2[nH]nc(-c3cc4cc(CO)ccc4[nH]3)c2s1)N1CCN(c2ccc(F)cc2)CC1

melting point: 213 to 216 °C
Structure (SMILES): OC1CCCN(CCCOc2ccc3cc(-c4n[nH]c5cc(-c6ccccc6)sc45)[nH]c3c2)C1 (stereo not drawn)

melting point: 205 to 207 °C
Structure (SMILES): COc1cccc(-c2cc3[nH]nc(-c4cc5ccc(OCCCN6CCC(O)CC6)cc5[nH]4)c3s2)c1

IC50 (ITK): 86 nM
IC50 [1]: 2900 nM
Structure (SMILES): COc1ccc2nc(-c3n[nH]c4c3sc3ccccc34)[nH]c2c1 [Example 3, 3-(6-Methoxy-1H-benzimidazol-2-yl)-1H-benzo[4,5]thieno[3,2-c-]pyrazole]

IC50 (ITK): 16.6 nM
IC50 [1]: 153 nM
Structure (SMILES): c1cc2[nH]nc(-c3cc4cc(OCCCN5CCCCC5)ccc4[nH]3)c2s1 [Example 5, 5-(3-Piperidin-1-yl-propoxy)-2-(1H-thieno[3,2-c]pyrazol-3-yl)-indole]

IC50 (ITK): 3.65 nM
IC50 [1]: 180 nM
Structure (SMILES): OC1CCN(CCCOc2ccc3cc(-c4n[nH]c5ccsc45)[nH]c3c2)CC1 [Example 6, 1-{3-[2-(1H-Thieno[3,2-c]pyrazol-3-yl)-1H-indol-6-yloxy]-propyl}-piperidin-4-ol]

IC50 (ITK): 1.62 nM
IC50 [1]: 11.3 nM
Structure (SMILES): OC1CCCN(CCCOc2ccc3cc(-c4n[nH]c5ccsc45)[nH]c3c2)C1 (stereo not drawn) [Example 8, 1-{3-[2-(1H-Thieno[3,2-c]pyrazol-3-yl)-1H-indol-6-yloxy]-propyl}-piperidin-3-ol]

IC50 (ITK): 2.08 nM
IC50 [1]: 129 nM
Structure (SMILES): OCC1CCCN(CCCOc2ccc3cc(-c4n[nH]c5ccsc45)[nH]c3c2)C1 (stereo not drawn) [Example 9, (1-{3-[2-(1H-Thieno[3,2-c]pyrazol-3-yl)-1H-indol-6-yloxy]-propyl}-piperidin-3-yl)-methanol]

IC50 (ITK): 24.2 nM
Structure (SMILES): CN(C)CCCOc1ccc2cc(-c3n[nH]c4ccsc34)[nH]c2c1 [Example 11, Dimethyl-{3-[2-(1H-thieno[3,2-c]pyrazol-3-yl)-1H-indol-6-yloxy]-propyl}-amine]

IC50 (ITK): 3.26 nM
Structure (SMILES): CN(CCO)CCCOc1ccc2cc(-c3n[nH]c4ccsc34)[nH]c2c1 [Example 15, 2-(Methyl-{3-[2-(1H-thieno[3,2-c]pyrazol-3-yl)-1H-indol-6-yloxy]-propyl}-amino)-ethanol]

IC50 (ITK): 76.3 nM
Structure (SMILES): OC1CCCN(CCCOc2ccc3[nH]c(-c4n[nH]c5ccsc45)cc3c2)C1 (stereo not drawn) [Example 17, 1-{3-[2-(1H-Thieno[3,2-c]pyrazol-3-yl)-1H-indol-5-yloxy]-propyl}-piperidin-3-ol]

IC50 (ITK): 41 nM
Structure (SMILES): OCC1CCCN(CCCOc2ccc3[nH]c(-c4n[nH]c5ccsc45)cc3c2)C1 (stereo not drawn) [Example 18, (1-{3-[2-(1H-Thieno[3,2-c]pyrazol-3-yl)-1H-indol-5-yloxy]-propyl}-piperidin-3-yl)-methanol]
